Results taken from PubChem BioAssay (NCI).
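Protocol summary: plate cells (96-well), add compound at 5 concentrations, incubate 48 h, interpolate endpoints linearly. The concentration for full growth arrest is given as TGI.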 Where a SMILES comes first, the peptide text is derived from it. [ ]: non-standard residue; d: D form. The star is where a group is joined. Hyp = O=C(O)[CH]1C[CH](O)CN1; Cbz = O=C(OCc1ccccc1)*

Assays:
Assay in all cases: NCI tumour cell line growth inhibition, 48 h
[1] = test system: PC-3 prostate
[2] = test system: CCRF-CEM leukemia
[3] = test system: CAKI-1 renal
[4] = test system: MCF7 breast
[5] = test system: HCT-116 colon
[6] = test system: SNB-75 CNS
[7] = test system: SF-539 CNS
[8] = test system: NCI-H522 lung
[9] = test system: COLO 205 colon
[10] = test system: HCT-15 colon
[11] = test system: RXF 393 renal
[12] = test system: SW-620 colon
[13] = test system: U251 CNS
[14] = test system: NCI/ADR-RES ovarian
[15] = test system: SK-OV-3 ovarian
[16] = test system: T-47D breast
[17] = test system: BT-549 breast

| Structure (SMILES) | TGI [1] [µM] | TGI [2] [µM] | TGI [3] [µM] | TGI [4] [µM] | TGI [5] [µM] | TGI [6] [µM] | TGI [7] [µM] | TGI [8] [µM] | TGI [9] [µM] | TGI [10] [µM] | TGI [11] [µM] | TGI [12] [µM] | TGI [13] [µM] | TGI [14] [µM] | TGI [15] [µM] | TGI [16] [µM] | TGI [17] [µM] |
| --- | --- | --- | --- | --- | --- | --- | --- | --- | --- | --- | --- | --- | --- | --- | --- | --- | --- |
| COc1ccc(/C=C2/C(=O)N(/C=C3\C(=O)Oc4ccccc4C3=O)C(=NC(C)=O)N2C)cc1OC | > 100 | > 100 | > 100 | > 100 | > 100 | > 100 | > 100 | > 100 | > 100 | > 100 | > 100 | > 100 | > 100 | > 100 | > 100 | > 100 | – |
| O=S(=O)(N1CCCCN(S(=O)(=O)C(F)(F)F)CCCN(S(=O)(=O)C(F)(F)F)CCCCN(S(=O)(=O)C(F)(F)F)CCCN(S(=O)(=O)C(F)(F)F)CCCCN(S(=O)(=O)C(F)(F)F)CCCN(S(=O)(=O)C(F)(F)F)CCCCN(S(=O)(=O)C(F)(F)F)CCC1)C(F)(F)F | > 31.6 | > 31.6 | > 31.6 | – | > 31.6 | > 31.6 | > 31.6 | > 31.6 | > 100 | > 31.6 | > 31.6 | > 31.6 | > 100 | > 31.6 | > 31.6 | > 31.6 | > 31.6 |
| CNC(=O)OCC1=C(COC(=O)NC)CN(c2ccc(OC)cc2)C1 | > 100 | > 100 | – | > 100 | > 100 | > 100 | > 100 | – | > 100 | > 100 | > 100 | > 100 | > 100 | > 100 | > 100 | > 100 | > 100 |
| CCCCCCCCCc1cc(=O)c2c(O)cc(O)cc2o1 | 32.1 | 44.7 | > 100 | – | 47.6 | 33.2 | 34.4 | 31.5 | 54.2 | 36 | 31.3 | 78.1 | 77.2 | 35.7 | 32.2 | 51.1 | – |
| c1cc2nnc1SCCSCCCSCCS2 | > 100 | > 100 | > 100 | > 100 | > 100 | 41.2 | 58.2 | > 100 | > 100 | > 100 | > 100 | > 100 | > 100 | > 100 | > 100 | > 100 | – |
| COC(=O)C(Cc1ccccc1)NP(=O)(O)OCC1OC(n2ccc(N)nc2=O)C(O)C1O (configuration not stated) | > 100 | > 100 | > 100 | > 100 | > 100 | > 100 | > 100 | > 100 | > 100 | > 100 | – | > 100 | > 100 | > 100 | > 100 | > 100 | > 100 |
| O=C1/C(=C\c2cccc(Oc3ccccc3)c2)SC(c2ccccc2)N1Cc1ccccc1 (configuration not stated) | – | 45.5 | > 100 | > 100 | 34 | – | 37.3 | 46.1 | 22 | > 100 | 64 | > 100 | 64.4 | 74.4 | 71.9 | 98.3 | 89 |
| O=c1[nH]nc(Cc2ccc(Cl)cc2)n1CCO | > 100 | – | > 100 | > 100 | > 100 | – | > 100 | > 100 | > 100 | > 100 | – | > 100 | > 100 | > 100 | > 100 | > 100 | > 100 |
| CC(O)/C=C/C1OC(=O)CC1Nc1ccc(C=O)cc1 (configuration not stated) | > 100 | > 100 | – | > 100 | > 100 | > 100 | > 100 | – | > 100 | > 100 | > 100 | > 100 | > 100 | > 100 | > 100 | > 100 | > 100 |
| CCC1=NC(N/N=C/c2ccco2)=N/C1=C\c1ccco1 | > 100 | > 100 | > 100 | – | > 100 | – | – | > 100 | > 100 | > 100 | > 100 | > 100 | > 100 | > 100 | > 100 | > 100 | > 100 |
| COc1cc2c(cc1OC)C(Cc1cc(Br)c(OC)c(OC)c1)=[N+](C)CC2 | – | > 100 | > 100 | – | > 100 | > 100 | > 100 | > 100 | > 100 | > 100 | > 100 | > 100 | > 100 | – | > 100 | – | – |
| CN(C)CCSC(=Nc1ccccc1)n1cccc1 | – | > 100 | > 100 | – | > 100 | 96.4 | > 100 | > 100 | > 100 | > 100 | > 100 | > 100 | > 100 | – | > 100 | – | – |
| CCC12CN(C(=O)OC)C3C(Br)C1CCC(=O)C32 (configuration not stated) | > 100 | > 100 | > 100 | > 100 | – | > 100 | > 100 | > 100 | > 100 | > 100 | > 100 | > 100 | > 100 | > 100 | > 100 | > 100 | – |
| COc1ccc(OC)c2c1ccc1c(C)c3ccccc3c(C)c12 | > 100 | > 100 | > 100 | > 100 | > 100 | > 100 | – | > 100 | – | > 100 | – | – | > 100 | – | – | > 100 | > 100 |
| CN1CCN(c2ccc3nc(-c4ccc5nc(CCCc6ccc(N(CCCl)CCCl)cc6)[nH]c5c4)[nH]c3c2)CC1 | > 100 | > 100 | > 100 | > 100 | > 100 | > 100 | > 100 | > 100 | > 100 | > 100 | > 100 | > 100 | > 100 | > 100 | > 100 | > 100 | – |
| CCOC(=O)c1nc2ccc(C(F)(F)F)cc2nc1NCc1ccc(F)cc1 | > 100 | > 100 | > 100 | > 100 | > 100 | > 100 | > 100 | 88.9 | 81 | > 100 | > 100 | > 100 | > 100 | > 100 | > 100 | 84.8 | – |
| O=C1NC(=O)C23C(=O)NC(=O)C12C1C=CC3CC1 (configuration not stated) | > 10 | > 10 | > 10 | > 10 | > 10 | > 10 | > 10 | > 10 | > 10 | > 10 | > 10 | > 10 | > 10 | > 10 | > 10 | > 10 | – |
| FC(F)(F)c1nc2c(ccc3[nH]c4c(-c5ccccc5)nccc4c32)[nH]1 | – | > 69.1 | > 100 | – | > 100 | > 100 | > 100 | > 100 | > 100 | > 100 | > 100 | > 100 | > 100 | – | > 100 | – | – |
| OCCCN=C1N=C(Cl)/C(=C\c2ccccc2)N1 | – | > 100 | > 100 | > 100 | > 100 | > 100 | > 100 | > 100 | > 100 | > 100 | > 100 | > 100 | > 100 | > 100 | > 100 | > 100 | – |
| CCOc1cc2cnc3c4cc(OC)c(OC)cc4ccc3c2cc1OC | – | 88.6 | > 100 | – | > 100 | > 100 | > 100 | > 100 | > 100 | > 100 | > 100 | > 100 | > 100 | – | > 100 | – | – |
| O=[N+]([O-])c1ccc2nc(/C=C(\O)c3ccccc3)c(NC34CC5CC(CC(C5)C3)C4)nc2c1 | > 10 | – | > 10 | > 10 | – | > 10 | > 10 | > 10 | > 10 | > 10 | > 10 | > 10 | > 10 | > 10 | > 10 | > 10 | – |
| CC(=O)O[C@H]1C(=O)[C@@]2(C)[C@H]([C@H](OC(=O)c3ccccc3)[C@]3(O)C[C@H](OC(=O)[C@H](O)[C@@H](NC(=O)C(C)(O)C(C)O)c4ccccc4)C(C)=C1C3(C)C)[C@]1(OC(C)=O)CO[C@@H]1C[C@@H]2O (some centres not stated) | > 50 | > 50 | > 50 | – | – | 0.398 | 0.49 | 0.341 | 0.254 | > 50 | 1.81 | > 50 | – | > 50 | 10.9 | > 50 | 3.45 |
| CN(C)c1cccc2c(S(=O)(=O)NCCCNCCN)cccc12 | > 100 | 46 | > 100 | – | > 100 | 68.6 | 49.7 | > 100 | 32.8 | > 100 | 75 | > 100 | > 100 | > 100 | > 100 | > 100 | – |
| Cc1[nH]c2[nH]c(=S)nc(NC(N)=S)c2c1Cc1ccccc1 | > 100 | > 100 | > 100 | > 100 | > 100 | 76.4 | > 100 | – | 34 | > 100 | – | > 100 | > 100 | > 100 | > 100 | 89.4 | 36.3 |
| CC(=O)OCc1ncccc1C(OC(C)=O)OC(C)=O | – | > 100 | > 100 | – | > 100 | > 100 | > 100 | > 100 | > 100 | > 100 | > 100 | > 100 | > 100 | – | > 100 | – | – |
| O=C(c1ccccc1)N1CCC(Nc2cccnc2)O1 (configuration not stated) | > 100 | > 100 | – | > 100 | > 100 | – | > 100 | – | – | > 100 | > 100 | > 100 | > 100 | > 100 | > 100 | > 100 | > 100 |
| C[C@@H]1C[C@@H]2C(=O)N(c3ccccc3)C(=O)[C@@H]2c2[nH]c3ccc(Br)cc3c21 | – | > 100 | > 100 | – | > 100 | 41.9 | > 100 | 78.5 | > 100 | > 100 | 78.5 | > 100 | 38.8 | – | 44.5 | – | – |
| NC(=O)CNC(=O)C1CC(O)CN1C(=O)C1CCCN1C(=O)OCc1ccccc1 (stereo not drawn) (Cbz-Pro-[Hyp]-Gly-NH2; configuration not given here) | > 100 | > 100 | – | > 100 | > 100 | > 100 | – | > 100 | > 100 | > 100 | > 100 | > 100 | > 100 | > 100 | > 100 | > 100 | > 100 |
| CN1C(CC(O)c2ccccc2)CCCC1CC(O)(c1ccccc1)c1ccccc1 (configuration not stated) | 34.7 | 58.1 | > 100 | 43.4 | 29.1 | 44.8 | 27.3 | 42.3 | 34.2 | 34.4 | 28.9 | 39 | 28.4 | 33.5 | 38.8 | 52.7 | – |
| O=C(Cn1c2c(c3ccccc31)CCCC2)N1CCOCC1 | > 100 | > 100 | > 100 | > 100 | > 100 | – | > 100 | – | > 100 | > 100 | – | > 100 | – | > 100 | > 100 | – | > 100 |
